Patent publication US9943528B2 (MAPREG, priority 2016, dated 2018)

Tests used:
[1] = system: Wistar Kyoto (WKY) rats; assay: Forced swimming test (FST) in WKY rats; assay type: in vivo, rat; conditions: FIG. 6B
Method: After a 6-day period of acclimatization, all experimental groups received daily successive subcutaneous (250 μl per rat) and intraperitoneal (1 ml/kg) injections. WI rats received injection of vehicle (sesame oil+saline) while WKY rats were randomly assigned to three experimental groups, as follow: KWY rats receiving only vehicle ([…]; rats received in parallel i.p. injections of saline), fluoxetine (10 mg/kg i.p., rats received in parallel s.c. injections of sesame oil) or ketamine (30 mg/kg, i.p.; rats received in parallel s.c. injections of sesame oil) (see FIG. 3).
(§1) After, a 6-day period of acclimatization, the acute phase of treatment started for 4 days during behavioral tests were performed (FIG. 3). All animals were injected 1 h 30 before the starting of behavioral test.
Rats were submitted to the forced swimming test (FST), according the procedure initially described by (Detke et al., 1995) and slightly modified by (Bianchi et al., 2002). Briefly, rats were individually placed into a Plexiglas cylinder (40 cm height, 20 cm diameter) containing 25 cm of water at 25±1° C., under 50 lux illumination. […] The pre-test and test sessions were recorded using a video camera placed above the cylinder for subsequent behavioral analysis. The immobility time (in sec) was blindly measured by two independent experimenters from recorded videos. […]

[2] = system: Wistar (WI) rats; assay: Forced swimming test (FST) in WI rats, dose-ranging; assay type: in vivo, rat; conditions: FIG. 6A
Method: as §1
Rats were submitted to the forced swimming test (FST), according the procedure initially described by (Detke et al., 1995) and slightly modified by (Bianchi et al., 2002). Briefly, rats were individually placed into a Plexiglas cylinder (40 cm height, 20 cm diameter) containing 25 cm of water at 25±1° C., under 50 lux illumination. After a pre-test session of 15 min, rats were removed, dried and returned to its housed cage. Twenty-four hours after the pre-test session, rats were still placed in the swim cylinder (under identical conditions) for the 5-min test session. The pre-test and test sessions were recorded using a video camera placed above the cylinder for subsequent behavioral analysis. The immobility time (in sec) was blindly measured by two independent experimenters from recorded videos. Rats were considered as immobile when none activity was observed other than that required to keep the rat's head above the water.

[3] = biological target: T1, human progesterone receptor (PR) (Homo sapiens, UniProt P06401); assay: Test of progesterone receptor antagonist activity (MMTV-luciferase transactivation with progesterone 1 nM); assay type: cell-based; conditions: HEK293T cells, progesterone 1 nM plus increasing amounts; FIG. 2
T1 construct: expressed in transfected cells; host or cells: HEK293T
T1 sequence (P06401 1-933): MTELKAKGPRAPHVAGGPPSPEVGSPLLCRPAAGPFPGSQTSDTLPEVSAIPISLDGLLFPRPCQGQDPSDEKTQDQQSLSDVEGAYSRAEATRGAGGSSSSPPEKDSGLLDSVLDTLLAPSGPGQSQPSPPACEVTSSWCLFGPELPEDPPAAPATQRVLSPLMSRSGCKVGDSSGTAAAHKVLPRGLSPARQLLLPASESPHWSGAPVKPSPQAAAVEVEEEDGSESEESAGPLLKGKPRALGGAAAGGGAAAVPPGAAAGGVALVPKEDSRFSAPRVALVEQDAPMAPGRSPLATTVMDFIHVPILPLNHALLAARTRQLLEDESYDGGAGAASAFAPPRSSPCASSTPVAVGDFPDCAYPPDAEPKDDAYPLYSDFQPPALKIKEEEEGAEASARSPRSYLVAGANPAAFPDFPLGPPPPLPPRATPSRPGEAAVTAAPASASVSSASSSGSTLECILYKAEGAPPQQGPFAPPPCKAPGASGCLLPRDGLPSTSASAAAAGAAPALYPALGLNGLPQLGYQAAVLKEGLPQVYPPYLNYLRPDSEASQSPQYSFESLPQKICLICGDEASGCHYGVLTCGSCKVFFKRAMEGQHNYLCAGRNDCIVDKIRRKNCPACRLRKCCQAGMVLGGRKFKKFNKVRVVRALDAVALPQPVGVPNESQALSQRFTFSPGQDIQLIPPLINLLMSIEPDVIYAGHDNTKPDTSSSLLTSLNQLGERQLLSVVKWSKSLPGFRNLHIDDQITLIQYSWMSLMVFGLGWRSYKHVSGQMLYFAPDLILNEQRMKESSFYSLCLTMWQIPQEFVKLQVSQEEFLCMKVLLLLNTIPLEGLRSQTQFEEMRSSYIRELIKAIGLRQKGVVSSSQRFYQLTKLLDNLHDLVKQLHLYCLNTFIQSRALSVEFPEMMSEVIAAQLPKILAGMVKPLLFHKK
Method: (§2) The main experimental setting used is the following: HEK293T cells were transiently transfected, using calcium phosphate precipitation technology, with expression vectors pSG5hPR (which permits expression of human progesterone receptor (PR)), pFC31-luc (contains the luciferase gene under the control of the MMTV promoter, which is in turn activated by binding of a progestin to progesterone receptor) and pcbetagal (which permits expression of betagalactosidase), and cultured during 24 hours with increasing amounts of various compositions:
Test of progesterone receptor […] activity: transfected cells were cultured with progesterone (1 nM) and increasing amounts of RU486 (a well-known progesterone receptor antagonist) or 3-methoxy-pregnenolone.
With this setting, a compound with progesterone receptor antagonist activity competes with progesterone for the occupation of progesterone receptor and results in a progressive loss of transactivation activity when the amount of this compound is increased compared to progesterone.

[4] = biological target: T1, human progesterone receptor (PR); assay: Test of progesterone receptor agonist activity (MMTV-luciferase transactivation in transfected HEK293T cells); assay type: cell-based; conditions: 24 hours, increasing amounts, FIG. 1
Method: as §2
Test of Progesterone Receptor Agonist Activity: Transfected Cells were Cultured with Increasing Amounts of Progesterone or 3-Methoxy-Pregnenolone

[5] = system: Noradrenergic α2; assay: CNS receptor binding assay, α2; conditions: MAP4343 10 μM; [3H] RX 821002; rat cerebral cortex
Excerpt: MAP4343 has been screened for in vitro affinity to 80 different CNS neurotransmitters receptors using various validated binding assays.

CO[C@H]1CC[C@@]2(C)C(=CC[C@H]3[C@@H]4CC[C@H](C(C)=O)[C@@]4(C)CC[C@@H]32)C1 [MAP4343, 3β-methoxy-pregna-5-ene-20-one]
immobility time in FST, dose-ranging effect ([1]; MAP4343 1, 5, 10 and 15 mg/kg): dose-dependent decrease of immobility time
immobility time in FST, change vs WKY receiving vehicle alone ([1]; dose-ranging, MAP4343 15 mg/kg): −25%
immobility time in FST, change vs WI receiving vehicle alone ([2]; MAP4343 10 mg/kg): −27%
immobility time in FST, change vs WI receiving vehicle alone ([2]; MAP4343 15 mg/kg): −31%
immobility time in FST, dose-ranging effect ([2]; MAP4343 1, 5, 10 and 15 mg/kg): dose-dependent reduction of immobility time
progesterone receptor antagonist activity (loss of transactivation) [3]: weak progesterone receptor antagonist
progesterone receptor agonist activity (transactivation, expression of luciferase) [4]: does not have progesterone receptor agonist activity
% Inhibition of control specific binding [5]: 7%
